# Counter-ions that a name gives are not always drawn. Like-named read-outs stand apart in the source and are kept apart here.
# Key:
# [1] = test system: HTT mRNA; experiment: Splicing RT-qPCR assay, HTT canonical (CJ) and alternative (AJ) junction mRNA; format: cell-based, human; conditions: Homo sapiens; for IC50: canonical junction mRNA; for AC50: alternative junction mRNA, read-out: HTT AJ (AC50, increase in AJ mRNA)
# Description: (§1) Compounds described herein were used to modulate RNA transcript abundance in cells. The expression of a target mRNA was measured by detecting the formation of an exon-exon junction in the canonical transcript (CJ). A compound mediated exon-inclusion event was detected by observing an increase in formation of a new junction with an alternative exon (AJ). Real-time qPCR assays were used to detect these splicing switches and interrogate the potency of various compounds towards different target genes. A high-throughput real time quantitative PCR (RT-qPCR) assay was developed to measure these two isoforms of the mRNA (CJ and AJ) for exemplary genes, such as HTT, SMN2, and MYB, together with a control housekeeping gene, GAPDH or GUSB or PPIA, used for normalization. Briefly, the A673 or K562 cell line was treated with various compounds described herein (e.g., compounds of Formula (D). After treatment, the levels of the HTT, MYB, or SMN2 mRNA targets were determined from each sample of cell lysate by cDNA synthesis followed by qPCR.
# (§2) • Cells-to-CT 1-step kit: ThermoFisher A25602, Cells-to-CT lysis reagent: ThermoFisher 4391851C, TaqMan™ Fast Virus 1-Step Master Mix: ThermoFisher 4444436 • GAPDH: VIC-PL, ThermoFisher 4326317E (Assay: Hs99999905_m1)—used for K562/suspension cell lines • GUSB: VIC-PL, ThermoFisher 4326320E (Assay: Hs99999908_m1)—used for K562/suspension cell lines • PPIA: VIC-PL, ThermoFisher 4326316E (Assay: Hs99999904_m1)—used for A673/adherent cell lines
# (§3) The A673 cell line was cultured in DMEM with 10% FBS. Cells were diluted with full growth media and plated in a 96-well plate (15,000 cells in 100 ul media per well). The plate was incubated at 37° C. with 5% CO2 for 24 hours to allow cells to adhere. An 11-point 3-fold serial dilution of the compounds was made in DMSO then diluted in media in an intermediate plate. Compounds were transferred from the intermediate plate to the cell plate with the top dose at a final concentration of 10 uM in the well. Final DMSO concentration was kept at or below 0.25%. The cell plate was returned to the incubator at 37° C. with 5% CO2 for an additional 24 hours.
# (§4) The K562 cell line was cultured in IMDM with 10% FBS. For K562, cells were diluted with full growth media and plated in either a 96-well plate (50,000 cells in 50 uL media per well) or a 384-well plate (8,000-40,000 cells in 45 uL media per well). An 11-point 3-fold serial dilution of the compounds were made in DMSO then diluted in media in an intermediate plate. Compound was transferred from the intermediate plate to the cell plate with the top dose at a final concentration of 10 uM in the well. Final DMSO concentration was kept at or below 0.25%. Final volume was 100 uL for 96-well plate and 50 uL for 384-well plate. The cell plate was then placed in an incubator at 37° C. with 5% CO2 for 24 hours.
# (§5) The cells were then gently washed with 50 uL-100 uL cold PBS before proceeding to addition of lysis buffer. 30 uL-50 μL of room temperature lysis buffer with DNAse I (and optionally RNAsin) was added to each well. Cells were shaken/mixed thoroughly at room temperature for 5-10 minutes for lysis to take place and then 3 uL-5 μL of room temperature stop solution was added and wells were shaken/mixed again. After 2-5 minutes, the cell lysate plate was transferred to ice for RT-qPCR reaction setup. The lysates could also be frozen at −80° C. for later use.
# (§6) In some cases, a direct lysis buffer was used. An appropriate volume of 3× lysis buffer (10 mM Tris, 150 mM NaCl, 1.5%-2.5% Igepal and 0.1-1 U/uL RNAsin, pH 7.4) was directly added to either K562 or A673 cells in media and mixed by pipetting 3 times. The plates were then incubated at room temperature with shaking/rocking for 20-50 minutes to allow for lysis to take place. After this time, the cell lysate plate was transferred to ice to set up for the RT-qPCR reactions. The lysates could also be frozen at −80° C. for later use. […]
# [2] = test system: MYB mRNA; experiment: Splicing RT-qPCR assay, MYB canonical (CJ) and alternative (AJ) junction mRNA; format: cell-based, human; conditions: Homo sapiens; for IC50: canonical junction mRNA; for AC50: alternative junction mRNA, read-out: MYB AJ (AC50, increase in AJ mRNA)
# Description: as §1, §2, §3, §4, §5, §6
# [3] = test system: SMN2 mRNA; experiment: Splicing RT-qPCR panel, SMN2 canonical junction (CJ) mRNA; format: cell-based, human; conditions: Homo sapiens, read-out: SMN2 CJ (decrease in CJ mRNA levels, IC50)
# Description: as §1, §3, §4, §5
# (§7) In some cases, a direct lysis buffer was used. An appropriate volume of 3× lysis buffer (10 mM Tris, 150 mM NaCl, 1.5%-2.5% Igepal and 0.1-1 U/uL RNAsin, pH 7.4) was directly added to either K562 or A673 cells in media and mixed by pipetting 3 times. The plates were then incubated at room temperature with shaking/rocking for 20-50 minutes to allow for lysis to take place. After this time, the cell lysate plate was transferred to ice to set up for the RT-qPCR reactions. The lysates could also be frozen at −80° C. for later use.
# (§8) To set up 10 uL RT-qPCR reactions, cell lysates were transferred to 384-well qPCR plates containing the master mix according to the table below. The plates were sealed, gently vortexed, and spun down before the run. The volumes were adjusted accordingly in some instances where the reaction was carried in 20 μL. The table below summarizes the components of the RT-qPCR reactions:
# (§9) The RT-qPCR reaction was performed using a QuantStudio (ThermoFisher) under the following fast cycling conditions. […]
# [4] = test system: Target C mRNA; experiment: Splicing RT-qPCR panel, Target C canonical junction (CJ) mRNA; format: cell-based, human; conditions: Homo sapiens, read-out: Target C CJ (decrease in CJ mRNA levels, IC50)
# Description: as §1, §3, §4, §5, §7, §8, §9
# [5] = test system: K562 cells; experiment: Cell viability, Cell Titer Glo 2.0 assay, K562; conditions: 72 hours
# [6] = 24 h, RT-qPCR, A673 or K562 cells, 24 hours treatment, read-out: HTT CJ (IC50, decrease in CJ mRNA)
# [7] = qPCR panel, read-out: HTT CJ (decrease in CJ mRNA levels, IC50)
# [8] = RT-qPCR, A673 or K562 cells, 24 hours treatment
# [9] = qPCR panel, read-out: MYB CJ (decrease in CJ mRNA levels, IC50)
# [10] = RT-qPCR, A673 or K562 cells, 24 hours treatment, read-out: MYB CJ (IC50, decrease in CJ mRNA)
SMILES,"IC50 [1, 6] [µM]","IC50 [1, 7] [µM]","AC50 [1, 8] [µM]","IC50 [2, 9] [µM]","AC50 [2, 8] [µM]","IC50 [2, 10] [µM]",IC50 [3] [µM],IC50 [4] [µM],"Effect on Cell Viability, K562 [5]"
Cc1c(O)c(-c2ccc3nc(N4CCNC(C)C4)cnc3n2)cc2cn(C)nc12 (stereo not shown) [Cmpd 196],0.1 to 1,0.1 to 1,1 to 10,0.1 to 1,< 0.1,0.1 to 1,< 0.1,1 to 10,
"CNC1CCN(c2cnc3nc(-c4cc5cn(C)nc5c(C)c4O)ccc3c2)C1 (stereo not shown) [Compound 113, 2,7-dimethyl-5-{6-[3-(methylamino)pyrrolidin-1-yl]-1,8-naphthyridin-2-yl}indazol-6-ol]",0.1 to 1,0.1 to 1,0.1 to 1,< 0.1,< 0.1,< 0.1,< 0.1,0.1 to 1,
"COc1cc(-c2cc3cn(C)nc3c(C)c2O)nc2ncc(N3CCNCC3)cc12 [Compound 152, 5-(4-methoxy-6-(piperazin-1-yl)-1,8-naphthyridin-2-yl)-2,7-dimethyl-2H-indazol-6-ol 2,2,2-trifluoroacetate]",0.1 to 1,0.1 to 1,1 to 10,0.1 to 1,0.1 to 1,0.1 to 1,< 0.1,1 to 10,B (100-1000 nM)
"Cn1cc2cc(-c3cnc4cc(C5CCNCC5)cc(F)c4n3)c(O)c(F)c2n1 [Compound 164, 7-fluoro-5-[8-fluoro-6-(piperidin-4-yl)quinoxalin-2-yl]-2-methylindazol-6-ol]",< 0.1,< 0.1,< 0.1,< 0.1,< 0.1,< 0.1,< 0.1,< 0.1,
"CN(C)C1CCN(c2ccc3nc(-c4cc5cn(C)nc5c(F)c4O)cnc3c2)CC1 [Compound 360, 5-{6-[4-(dimethylamino)piperidin-1-yl]quinoxalin-2-yl}-7-fluoro-2-methylindazol-6-ol]",0.1 to 1,0.1 to 1,> 10,< 0.1,0.1 to 1,< 0.1,< 0.1,1 to 10,B (100-1000 nM)
"Cc1cn2cc(-c3ccc4cc(N(C)[C@@H]5CCNC5)cnc4n3)cc(F)c2n1 [Compound 361, 7-{8-fluoro-2-methylimidazo[1,2-a]pyridin-6-yl}-N-methyl-N-[(3R)-pyrrolidin-3-yl]-1,8-naphthyridin-3-amine hydrochloride]",> 10,> 10,> 10,> 10,> 10,> 10,> 10,> 10,C (1000-9999 nM)
"C[C@@H]1CN(c2cnc3nc(-c4cc5cn(C)nc5cc4O)cc(C4CC4)c3c2)C[C@H](C)N1 [Compound 364, 5-{4-cyclopropyl-6-[(3R,5S)-3,5-dimethylpiperazin-1-yl]-1,8-naphthyridin-2-yl}-2-methylindazol-6-ol hydrochloride]",< 0.1,< 0.1,0.1 to 1,< 0.1,0.1 to 1,< 0.1,< 0.1,0.1 to 1,C (1000-9999 nM)
"CN(c1cnc2nc(-c3cc(F)c4nn(C)cc4c3)ccc2c1)[C@@H]1CCNC1 [Compound 366, 7-(7-fluoro-2-methylindazol-5-yl)-N-methyl-N-[(3R)-pyrrolidin-3-yl]-1,8-naphthyridin-3-amine]",> 10,> 10,> 10,1 to 10,0.1 to 1,1 to 10,0.1 to 1,> 10,C (1000-9999 nM)
"CN(c1cnc2nc(-c3cc(F)c4nn(C)cc4c3)ccc2c1)[C@H]1CCNC1 [Compound 367, 7-(7-fluoro-2-methylindazol-5-yl)-N-methyl-N-[(3S)-pyrrolidin-3-yl]-1,8-naphthyridin-3-amine]",> 10,> 10,> 10,1 to 10,1 to 10,1 to 10,0.1 to 1,> 10,C (1000-9999 nM)
"Cn1cc2cc(-c3ccc4c(Cl)c(N5CCNC6(CC6)C5)cnc4n3)c(O)cc2n1 [Compound 500, 5-[5-chloro-6-(4,7-diazaspiro[2.5]octan-7-yl)-1,8-naphthyridin-2-yl]-2-methyl-indazol-6-ol]",1 to 10,1 to 10,1 to 10,0.1 to 1,0.1 to 1,0.1 to 1,< 0.1,,
